The source of these data is patent publication US8962606B2, “Substituted benzosulphonamides” (Bayer Intellectual Property GmbH, priority 2009, dated 2015).

One may read the pIC50 as −log10 of the IC50, conventionally taken in molar units. A lower pIC50 goes with a large IC50.

pIC50: −log10 of the molar value.

Assay [1] deals with A549 cells [human non small cell lung cancer cell line, expressing mutant K-Ras G12S]. The experiment in a line: A549 Cell Titer Glo (CTG) Proliferation Assay [Assay 2]. In kind it is cell-based. As to conditions: 72 hours incubation. The method, then:
(§1) HCT116 cells [human colorectal cell line, expressing […]] were plated at a density of 3000 cells/well in 96 well black-clear bottom tissue culture plates (Costar 3603 black/clear bottom) in 100 μl/well DMEM medium (DMEM/Ham's F12) with 10% Fetal Bovine Serum (FBS) and stable Glutamine incubated at 37° C. Sister wells were plated in separate plate for time zero determination. All plates were incubated overnight at 37° C. Take down time zero plate: 100 μl/well CTG solution (Promega Cell Titer Glo solution) were added to time zero wells in sister plate; the plates were mixed for 2 min on orbital shaker to ensure cell lysis, incubated for 10 minutes, luminescence was read on VICTOR3 (Perkin Elmer). Twenty-four hours after cell seeding, test compounds were diluted in 50 μl medium and were added at a final concentration range from as high 10 μM to as low […] depending on the activities of the tested compounds in serial dilutions at a final DMSO concentration of 0.4%. Cells were incubated for 72 hours at 37° C. after addition of the test compound. Then, using a Promega Cell Titer Glo Luminescent® assay kit, 100 μl microliter lysis buffer containing of the enzyme luciferase and its substrate, luciferin mixture, were added to each well and incubated for 10 min at room temperature in the dark to stabilize luminescence signal. The samples were read on VICTOR3 (Perkin Elmer) using Luminescence protocol. The percentage change in cell growth was calculated by normalizing the measurements to the extinctions of the zero point plate (=0%) and the extinction of the untreated (0 μM) cells (=100%). The IC50 values were determined by means of a 4-parameter fit using the company's own software.
Assay 2: A549 Cell Titer Glo (CTG) Proliferation Assay:
A549 cells [human non small cell lung cancer cell line, expressing mutant K-Ras G12S] were seeded at a density of 2000 cells/well in 96 well black-clear bottom tissue culture plates (Costar 3603 black/clear bottom) in 100 μl/well DMEM medium (DMEM/Ham's F12) with 10% Fetal Bovine Serum (FBS) and stable Glutamine incubated at 37° C. Cell Titer Glo proliferation assays for A549 cells were performed with the same protocol as described afore for HCT116 cells.
(In ATP-based viability assays light output follows the ATP content of the culture.)

Assay [2] has as its system HCT116 cells [human colorectal cell line]. The experiment in a line: HCT116 Cell Titer Glo (CTG) Proliferation Assay [Assay 1]. In kind it is cell-based. As to conditions: HCT-116, 72 hours incubation.
Source text: Cell Titer Glo Proliferation Assay
The adherent tumor cell proliferation assay used to test the compounds of the present invention involves a readout called Cell Titre-Glo developed by Promega (Cunningham, B A “A Growing Issue: Cell Proliferation Assays. Modern kits ease quantification of cell growth” The Scientist 2001, 15(13), 26, and Crouch, S P et al., “The use of ATP bioluminescence as a measure of cell proliferation and cytotoxicity” Journal of Immunological Methods 1993, 160, 8 1-88).
Assay 1: HCT116 Cell Titer Glo (CTG) Proliferation Assay:
as §1

Assay [3] deals with A375 cells [human melanoma cell line, expressing mutant BRAF V600E]. The experiment in a line: A375 Crystal Violet (CV) Proliferation Assay [Assay 5]. In kind it is cell-based. As to conditions: A-375, 96 h, crystal violet staining, 4 days incubation. The method, then: Assay 5: A375 Crystal Violet (CV) Proliferation Assay:
Cell proliferation for A375 cells [human melanoma cell line, expressing mutant BRAF V600E] was measured by crystal violet (CV) staining: Cultivated human A375 cells were plated out in a density of 1500 cells/measurement point in 200 μl of growth medium (DMEM/HAMS F12 with 10% FBS and 2 mM Glutamine) in a 96-well multititer plate. After 24 hours, the cells from a plate (zero plate) were stained with crystal violet (see below), while the medium in the other plates was replaced by fresh culture medium (200 μl) to which the test substances had been added in various concentrations (0 μM, and in the range 0.3 nM-30 μM; the final concentration of the solvent dimethyl sulphoxide was 0.5%). The cells were incubated in the presence of the test substances for 4 days. The cell proliferation was determined by staining the cells with crystal violet: the cells were fixed by adding 20 μl/measurement point of an 11% glutaraldehyde solution at room temperature for 15 min. After the fixed cells had been washed three times with water, the plates were dried at room temperature. The cells were stained by adding 100 μl/measurement point of a 0.1% crystal violet solution (pH adjusted to pH 3 by adding acetic acid). After the stained cells had been washed three times with water, the plates were dried at room temperature. The dye was dissolved by adding 100 μl/measurement point of a 10% acetic acid solution, and the extinction was determined by photometry at a wavelength of 595 nm. The percentage change in cell growth was calculated by normalizing the measurements to the extinctions of the zero point plate (=0%) and the extinction of the untreated (0 μM) cells (=100%). The IC50 values were determined by means of a 4-parameter fit using the company's own software.

In a further assay the test system is colon cancer. As to conditions: oral treatment, mouse models, background [18]; cited from earlier work.
In a further assay the test system is MEK1/2. As to conditions: second-generation MEK1/2 inhibitor, background [17]; cited from earlier work.

With `C#Cc1ccc(Nc2cc(F)cc(Oc3cccc(NS(=O)(=O)CC)c3)c2NS(=O)(=O)C2CC2)c(F)c1` [Example 9, N-(2-{3-[(ethylsulfonyl)amino]phenoxy}-6-[(4-ethynyl-2-fluorophenyl)amino]-4-fluorophenyl)cyclopropanesulfonamide], the pIC50 in assay [1] was 6.86; in assay [2] it was 7.22; in assay [3], 8.62.
Taken in the same sequence, the figures for `CCS(=O)(=O)Nc1cccc(Oc2cc(F)cc(Nc3ccc(I)cc3F)c2NS(=O)(=O)C(C)C)c1` [Example 4, N-(2-{3-[(ethylsulfonyl)amino]phenoxy}-4-fluoro-6-[(2-fluoro-4-iodophenyl)amino]-phenyl)propane-2-sulfonamide] were 7.03, 7.27 and 7.81.
Turning to `CCS(=O)(=O)Nc1cccc(Oc2cc(F)cc(Nc3ccc(I)cc3F)c2NS(=O)(=O)CC)c1` [Example 3, N-(3-{2-[(ethylsulfonyl)amino]-5-fluoro-3-[(2-fluoro-4-iodophenyl)amino]-phenoxy}phenyl)-ethanesulfonamide], the results for the negative logarithm of the IC50 (pIC50) in assay [1], in assay [2] and in assay [3] were 7.13, 7.50 and 8.81, respectively.
For the compound `C#Cc1ccc(Nc2cc(F)cc(Oc3cccc(NS(=O)(=O)CC)c3)c2NS(N)(=O)=O)c(F)c1` [Example 10, N-(3-{3-[(4-ethynyl-2-fluorophenyl)amino]-5-fluoro-2-(sulfamoylamino)phenoxy}phenyl)ethanesulfonamide], the results for the pIC50 in assay [1], in assay [2] and in assay [3] were 7.06, 7.15 and 8.10, respectively.
As for `CCS(=O)(=O)Nc1cccc(Oc2cc(F)cc(Nc3ccc(I)cc3F)c2NS(C)(=O)=O)c1` [Example 2, N-(3-{5-fluoro-3-[(2-fluoro-4-iodophenyl)amino]-2-[(methylsulfonyl)-amino]phenoxy}-phenyl)ethane-sulfonamide], the results for the negative logarithm of the IC50 (pIC50) in assay [1], in assay [2] and in assay [3] were 7.40, 7.55 and 9.05, respectively.
For the compound `CC(C)S(=O)(=O)Nc1cccc(Oc2cc(F)cc(Nc3ccc(I)cc3F)c2NS(=O)(=O)C2CC2)c1` [Example 12, N-(4-fluoro-2-[(2-fluoro-4-iodophenyl)amino]-6-{3-[(isopropylsulfonyl)amino]phenoxy}phenyl)cyclopropanesulfonamide], the pIC50 was 7.44 in assay [1], 7.49 in assay [2] and 9.14 in assay [3].
Take `NC(=O)c1c(Nc2ccc(I)cc2F)cc(F)cc1Oc1cccc(NS(N)(=O)=O)c1` [reference compound]: the pIC50 in assay [1] was 6.50; in assay [2], 6.68; in assay [3], 8.34.
In the case of `CCS(=O)(=O)Nc1cccc(Oc2cc(F)cc(Nc3ccc(I)cc3F)c2NS(=O)(=O)C2CC2)c1C` [Example 7, N-(2-{3-[(ethylsulfonyl)amino]-2-methylphenoxy}-4-fluoro-6-[(2-fluoro-4-iodophenyl)amino]phenyl)cyclopropanesulfonamide], the pIC50 was 8.52 in assay [2] and 9.77 in assay [3].
`NS(=O)(=O)Nc1cccc(Oc2cc(F)cc(Nc3ccc(I)cc3F)c2NS(=O)(=O)C2CC2)c1` [Example 11, N-{4-fluoro-2-[(2-fluoro-4-iodophenyl)amino]-6-[3-(sulfamoylamino)phenoxy]phenyl}cyclopropanesulfonamide]: the figures for the negative logarithm of the IC50 (pIC50) in assay [1] and in assay [2] were 8.18 and 8.15, respectively.
For the compound `CCS(=O)(=O)Nc1cccc(Oc2cc(F)cc(Nc3ccc(I)cc3F)c2NS(N)(=O)=O)c1C` [Example 8, N-(3-{5-fluoro-3-[(2-fluoro-4-iodophenyl)amino]-2-(sulfamoylamino)phenoxy}-2-methylphenyl)ethanesulfonamide], the figures for the negative logarithm of the IC50 (pIC50) in assay [1], in assay [2] and in assay [3] were 8.32, 8.00 and 9.17, respectively.
Regarding `O=C(NOCC1CC1)c1ccc(F)c(F)c1Nc1ccc(I)cc1Cl` [PD184352], the “colon cancer growth in vivo” value in the assay on colon cancer was “inhibit colon cancer growth in vivo”. Moreover, in the assay on MEK1/2, the IC50 entry is listed as “low nanomolar range”.
Turning to `CCS(=O)(=O)Nc1cccc(Oc2cc(F)cc(Nc3ccc(I)cc3F)c2NS(=O)(=O)C2CC2)c1` [Example 1, N-(2-{3-[(ethylsulfonyl)amino]phenoxy}-4-fluoro-6-[(2-fluoro-4-iodophenyl)amino]phenyl)cyclopropanesulfonamide], the negative-log IC50 (pIC50) in assay [1] is 7.74; in assay [2], 7.58; in assay [3], 9.45.
The compound `NS(=O)(=O)Nc1cc(Oc2cc(F)cc(Nc3ccc(I)cc3F)c2NS(=O)(=O)C2CC2)ccc1F` [Example 14, N-{4-fluoro-2-[(2-fluoro-4-iodophenyl)amino]-6-[4-fluoro-3-(sulfamoylamino)phenoxy]phenyl}cyclopropanesulfonamide] had a pIC50 in assay [3] of 7.73.
On to `CCS(=O)(=O)Nc1cccc(Oc2cc(F)cc(Nc3ccc(I)cc3F)c2NS(N)(=O)=O)c1` [Example 6, N-(3-{5-fluoro-3-[(2-fluoro-4-iodophenyl)amino]-2-(sulfamoylamino)phenoxy}phenyl)ethanesulfonamide], for which the negative-log IC50 (pIC50) in assay [1] was 7.16; in assay [2] it was 7.00; in assay [3], 8.61.
